≈ marks a conversion by molar mass, not a printed value. Where two headings read alike, the source gives them in different places.
Legend:
Format in all cases: cell-based
[1] = system: Enterococcus faecium VRQR (vancomycin resistant, quinolone resistant); experiment: MIC, agar dilution method, Mueller-Hinton agar with 5% defibrinated horse blood; conditions: 35° C., 5% CO2, 24 hours
Protocol: (§1) The following in vitro results were obtained based on an agar dilution method except for C. pneumoniae. The activity is presented as the minimum inhibitory concentration (MIC).
(§2) Streptococci and enterococci were tested on Mueller-Hinton agar supplemented with 5% defibrinated horse blood, using an approximate inoculum of 1×10^4 cfu/spot an incubation temperature of 35° C. in an atmosphere of 5% CO2 for 24 hours. The MIC was defined as the lowest concentration at which no visible bacterial growth was observed.

[2] = system: Streptococcus pneumoniae IID553; experiment: as above; conditions: 35° C., 5% CO2, 24 hours
Protocol: as §1, §2

[3] = system: Streptococcus pneumoniae PRQR (penicillin resistant, quinolone resistant); experiment: as above; conditions: 35° C., 5% CO2, 24 hours
Protocol: as §1, §2

[4] = system: Streptococcus pyogenes IID692; experiment: as above; conditions: 35° C., 5% CO2, 24 hours
Protocol: as §1, §2

[5] = system: Moraxella catarrhalis ATCC25238; experiment: MIC, agar dilution method, Mueller-Hinton agar; conditions: 35° C., 24 hours
Protocol: as §1
(§3) S. aureus and M. catarrhalis were tested on Mueller-Hinton agar, using an approximate inoculum of 1×10^4 cfu/spot an incubation temperature of 35° C. for 24 hours. The MIC was defined as the lowest concentration at which no visible bacterial growth was observed.

[6] = system: Staphylococcus aureus CR (chloramphenicol resistant); experiment: MIC, agar dilution method, Mueller-Hinton agar; conditions: 35° C., 24 hours
Protocol: as §1, §3

[7] = system: Staphylococcus aureus MR (methicillin resistant); experiment: MIC, agar dilution method, Mueller-Hinton agar; conditions: 35° C., 24 hours
Protocol: as §1, §3

[8] = system: Staphylococcus aureus Smith; experiment: MIC, agar dilution method, Mueller-Hinton agar; conditions: 35° C., 24 hours
Protocol: as §1, §3

Row | MIC ([1]; read-out: MIC) [µg/mL] | MIC ([2]; read-out: MIC) [µg/mL] | MIC ([3]; read-out: MIC) [µg/mL] | MIC ([4]; read-out: MIC) [µg/mL] | MIC ([5]; read-out: MIC) [µg/mL] | MIC ([6]; read-out: MIC) [µg/mL] | MIC ([7]; read-out: MIC) [µg/mL] | MIC ([8]; read-out: MIC) [µg/mL] | MIC [1] [µg/mL] | MIC [2] [µg/mL] | MIC [3] [µg/mL] | MIC [4] [µg/mL] | MIC [5] [µg/mL] | MIC [6] [µg/mL] | MIC [7] [µg/mL] | MIC [8] [µg/mL] | Compound
1 | 1 (≈ 2.66 µM) | 0.25 (≈ 0.664 µM) | 0.25 (≈ 0.664 µM) | 0.25 (≈ 0.664 µM) | 1 (≈ 2.66 µM) | 2 (≈ 5.31 µM) | 0.25 (≈ 0.664 µM) | 0.125 (≈ 0.332 µM) | – | – | – | – | – | – | – | – | N[C@@H]1[C@H]2CN(c3c(F)cc(N4C[C@H](Cn5ccnn5)OC4=O)cc3F)C[C@@H]12 [example 2, 1-[5(R)-3-[4-[(1α,5α,6α)-6-Amino-3-azabicyclo[3.1.0]hexan-3-yl]-3,5-difluorophenyl]-2-oxooxazolidin-5-ylmethyl]-1,2,3-triazole]
2 | – | – | – | – | – | – | – | – | 0.25 (≈ 0.684 µM) | 0.5 (≈ 1.37 µM) | 0.25 (≈ 0.684 µM) | 0.125 (≈ 0.342 µM) | 1 (≈ 2.74 µM) | 1 (≈ 2.74 µM) | 0.06 (≈ 0.164 µM) | 0.125 (≈ 0.342 µM) | N#C[C@@H]1[C@H]2C=C(c3ccc(N4C[C@H](Cn5ccnn5)OC4=O)cc3F)C[C@@H]12 [example 8, 1-[5(R)-3-[4-[(1α,5α,6α)-6-Cyanobicyclo[3.1.0]hex-2-en-3-yl]-3-fluorophenyl]-2-oxooxazolidin-5-ylmethyl]-1,2,3-triazole]

Reference: patent publication US20070293493A1, “OXAZOLIDINONE ANTIBIOTICS AND DERIVATIVES THEREOF” (priority 2003, published 2007)
